From paper PMC7643960 (PLoS ONE, 2020)

Columns and labels:
Assay type in all cases: cell-based, horse
[1] = test system: primary EMM cells MelDuWi; assay: crystal violet staining assay (CVS), proliferation; conditions: mean (95% CI)
Experimental: (§1) All cells used for the experiments originate from different horses. Primary EMM cells (MelDuWi) and primary equine dermal fibroblasts (PriFi1, PriFi2) belong to the cell culture stock of the Clinic for Horses, University of Veterinary Medicine Hannover, Foundation, Hannover, Germany.
(§2) The proliferation assay was performed as published. […] Control cells were treated with medium only. The proportion of cells treated relative to untreated controls was determined by crystal violet staining and photometric absorbance measurement at the incubation time points mentioned above. Proliferation assays were performed in six to eight biological replicates with two technical replicates for each combination of cell type, incubation time and compound concentration.
(§3) Technical duplicates with a coefficient of variation of more than 20% were excluded from the cell assay analysis. […] Additional statistical data analysis was conducted with R 3.5.1.. A generalized additive model was fitted for each test (MTS and CVS) and cell type comparison (primary EMM cells and fibroblasts, and primary ES cells and fibroblasts) using the ‘mgcv’ package. Compound concentrations and the duration of incubation were modeled as tensor product smooth interacting with compound and cell line. Cell passage was added as a random effect. An appropriate distribution was selected by the visual inspection of residuals. The p-values were obtained by performing a Wald test for each parameter. Statistical significance was set at 0.05.

[2] = test system: primary EMM cells eRGO1; assay: crystal violet staining assay (CVS), proliferation; conditions: mean (95% CI)
Experimental: as §1, §2, §3

[3] = test system: primary ES cells sRGO1; assay: crystal violet staining assay (CVS), proliferation; conditions: mean (95% CI)
Experimental: as §1, §2, §3

[4] = test system: primary ES cells sRGO2; assay: crystal violet staining assay (CVS), proliferation; conditions: mean (95% CI)
Experimental: as §1, §2, §3

[5] = test system: primary equine dermal fibroblasts PriFi1; assay: crystal violet staining assay (CVS), proliferation; conditions: mean (95% CI)
Experimental: as §1, §2, §3

[6] = test system: primary equine dermal fibroblasts PriFi2; assay: crystal violet staining assay (CVS), proliferation; conditions: mean (95% CI)
Experimental: as §1, §2, §3

[7] = test system: primary EMM cells MelDuWi; assay: MTS cytotoxicity assay; conditions: mean (95% CI)
Experimental: as §1
(§4) The cytotoxicity of the compounds was assessed by the CellTiter 96® AQueous One Solution Cell Proliferation Assay (MTS) (Promega GmbH, Mannheim, Germany) as reported. In brief, in order to reach cell confluence within 48 h, cells were seeded into 96-well plates in adequate densities (MelDuWi 30,000 cells/well; PriFi1, PriFi2, eRGO1 20,000 cells/well; sRGO1and sRGO2 15,000 cells/well). […] The formazan dye generated by the metabolic active cells was quantified photometrically. Cytotoxicity assays were performed in six to nine biological replicates with two technical replicates for each combination of cell type, incubation time and compound concentration.
as §3

[8] = test system: primary EMM cells eRGO1; assay: MTS cytotoxicity assay; conditions: mean (95% CI)
Experimental: as §1, §4, §3

[9] = test system: primary ES cells sRGO1; assay: MTS cytotoxicity assay; conditions: mean (95% CI)
Experimental: as §1, §4, §3

[10] = test system: primary ES cells sRGO2; assay: MTS cytotoxicity assay; conditions: mean (95% CI)
Experimental: as §1, §4, §3

[11] = test system: primary equine dermal fibroblasts PriFi1; assay: MTS cytotoxicity assay; conditions: mean (95% CI)
Experimental: as §1, §4, §3

[12] = test system: primary equine dermal fibroblasts PriFi2; assay: MTS cytotoxicity assay; conditions: mean (95% CI)
Experimental: as §1, §4, §3

[13] = test system: EMM cells MelDuWi; assay: cell cycle investigation by flow cytometry (propidium iodide); conditions: double IC50 concentration
Experimental: (§5) Approximately 7.5 × 10^5 cells (MelDuWi) and 1.0 × 10^6 cells (PriFri2 and sRGO2) were seeded in 25 cm^2 cell culture flasks. […] Following 24 and 48 h of incubation, the cells were harvested by mild trypsinization and washed twice with phosphate-buffered saline (PBS) buffer (containing Mg^2+ and Ca^2+). Cells (1.0 × 10^6) were fixed with ethanol (70%, -20°C, for 24 h). After discarding the ethanol, the cells were washed in 1 mL PBS buffer (containing Mg^2+ and Ca^2+) and were centrifuged. The cell pellet was resuspended in 1 mL of staining PBS buffer (containing Mg^2+ and Ca^2+, 10 μg/mL RNASe [Thermofisher] and 15 μg/mL propidium iodide [Sigma-Aldrich, Munich, Germany]) and was incubated for 30 min at room temperature. Analyses were performed using the Attune® FACS machine (Life Technologies, Darmstadt, Germany) collecting data from the BL-2A channel. Doublet cells were excluded from the measurements by plotting BL-2A against BL-2H. A total of 20,000 events were collected for each cell cycle distribution. Each sample was measured in duplicate.

[14] = test system: equine dermal fibroblasts PriFri2; assay: as above; conditions: double IC50 concentration
Experimental: as §5

C=C(C)[C@@H]1CC[C@]2(COS(N)(=O)=O)CC[C@]3(C)[C@H](CC[C@@H]4[C@@]5(C)CC[C@H](OS(N)(=O)=O)C(C)(C)[C@@H]5CC[C@]43C)[C@@H]12 [BBS, (3β)-Lup-20(29)-ene-3,28-diol, 3,28-disulfamate]
IC50 ([1]; 5 h): > 100 µM | IC50 ([1]; 24 h): 50 µM | IC50 ([1]; 48 h): 36 µM | IC50 ([1]; 96 h): 16 µM | IC50 ([2]; eRGO1, 5 h): > 100 µM | IC50 ([2]; eRGO1, 24 h): 42 µM | IC50 ([2]; eRGO1, 48 h): 25 µM | IC50 ([2]; eRGO1, 96 h): 15 µM | IC50 ([3]; sRGO1, 5 h): > 100 µM | IC50 ([3]; sRGO1, 24 h): 40 µM | IC50 ([3]; sRGO1, 48 h): 23 µM | IC50 ([4]; sRGO2, 5 h): > 100 µM | IC50 ([4]; sRGO2, 24 h): 38 µM | IC50 ([4]; sRGO2, 48 h): 29 µM | IC50 ([5]; PriFi1, 5 h): > 100 µM | IC50 ([5]; PriFi1, 24 h): 52 µM | IC50 ([5]; PriFi1, 48 h): 42 µM | IC50 ([5]; PriFi1, 96 h): 17 µM | IC50 ([6]; PriFi2, 5 h): > 100 µM | IC50 ([6]; PriFi2, 24 h): 62 µM | IC50 ([6]; PriFi2, 48 h): 39 µM | IC50 ([6]; PriFi2, 96 h): 16 µM | IC50 ([7]; 5 h): > 100 µM | IC50 ([7]; 24 h): 60 µM | IC50 ([7]; 48 h): 53 µM | IC50 ([7]; 96 h): 32 µM | IC50 ([8]; eRGO1, 5 h): > 100 µM | IC50 ([8]; eRGO1, 24 h): 47 µM | IC50 ([8]; eRGO1, 48 h): 32 µM | IC50 ([8]; eRGO1, 96 h): 16 µM | IC50 ([9]; sRGO1, 5 h): > 100 µM | IC50 ([9]; sRGO1, 48 h): 25 µM | IC50 ([10]; sRGO2, 5 h): > 100 µM | IC50 ([10]; sRGO2, 24 h): 45 µM | IC50 ([10]; sRGO2, 48 h): 28 µM | IC50 ([11]; PriFi1, 5 h): > 100 µM | IC50 ([11]; PriFi1, 24 h): 59 µM | IC50 ([11]; PriFi1, 48 h): 35 µM | IC50 ([11]; PriFi1, 96 h): 28 µM | IC50 ([12]; PriFi2, 5 h): > 100 µM | IC50 ([12]; PriFi2, 24 h): 77 µM | IC50 ([12]; PriFi2, 48 h): 61 µM | IC50 ([12]; PriFi2, 96 h): 20 µM | Cell cycle percentage G1/G0 ([13]; 24 h): 68,2% | Cell cycle percentage M ([13]; 24 h): 0,5% | Cell cycle percentage S ([13]; 24 h): 23,9% | Cell cycle percentage SubG1 ([13]; 24 h): 6,7% | Cell cycle percentage G1/G0 ([13]; 48 h): 48,2% | Cell cycle percentage M ([13]; 48 h): 0,3% | Cell cycle percentage S ([13]; 48 h): 7,6% | Cell cycle percentage G1/G0 ([14]; PriFri2, 24 h): 79,1% | Cell cycle percentage M ([14]; PriFri2, 24 h): 1,0% | Cell cycle percentage S ([14]; PriFri2, 24 h): 12,1% | Cell cycle percentage SubG1 ([14]; PriFri2, 24 h): 7,1% | Cell cycle percentage G1/G0 ([14]; PriFri2, 48 h): 73,7% | Cell cycle percentage M ([14]; PriFri2, 48 h): 0,9% | Cell cycle percentage S ([14]; PriFri2, 48 h): 10,8% | Cell cycle percentage SubG1 ([14]; PriFri2, 48 h): 13,7%
